Measurements from patent publication US20230219969A1 (priority 2020, published 2023).
Read-outs that look alike come from different tables or passages of the source.

Columns and labels:
5HT2A [1] = format: cell-based; settings: result in words
Rat cortical neurons [2] = test: Neurite Outgrowth Assay (Procedure A); format: cell-based; settings: 1 hour treatment at DIV 4, analyzed DIV 7
Text: Neurite outgrowth assay. Changes in the pattern of neurite outgrowth have been implicated in neurodegenerative disorders as well as traumatic injuries. The discovery of new compounds that can positively affect neuritogenesis are important for developing new therapeutics for neurological diseases. Measurement of neurite outgrowth of rat cortical neurons using an automated image-based assay is used to determine the neuroplastic effects of the compounds provided herein. In some embodiments, a compound provided herein increases the pattern of neurite outgrowth. In some embodiments, a compound provided herein increases neurite average length compared to a control. In some embodiments, a compound provided herein increases neurite branch points compared to a control. In some embodiments, a compound provided herein increases neurite average length and neurite branch points compared to a control.
In some embodiments, the plastogenic potential of compounds provided herein is assessed by measuring the changes in neurite development. In some embodiments, the plastogenic potential (as measured by Neurite Outgrowth Procedure A) of the compounds is shown in Table 10.
Neurite Outgrowth Assay (Procedure A). Rat cortical neurons (20,000 cells/well) were freshly isolated from embryonic day 18 rats and cultured in Neurobasal Medium (+B27). The cultured cells were plated in 96 well-plates (avoiding external wells). At DIV 4, the neurons were treated with compound or control (10 μM) for 1 hour followed by complete washout of the compound. At DIV 7, the neurons were analyzed. The experiments were performed in triplicate. Neurite outgrowth was measured analyzing the following parameters: Number of Cell Bodies, total neurite length (pixels), Root Count, Segments, Extremities Count and node points. Changes in the pattern of neurite outgrowth of the neurons were analyzed by immunocytochemistry against […]. Pictures were acquired by the CellInsight CX7 from Thermo Fisher and analyzed using its software. Results generated in the equipment were maximum neurite length, extremity count, root count, dendrite branch points, and total neurite length. The results were compared the percent of DMSO control, representing the percentage of outgrowth compare to vehicle control in neuronal outgrowth.

5HT2A [3] = molecular target: T1, 5HT2A (Homo sapiens, UniProt P28223); test: Serotonin 5-HT2A in vitro cellular IPOne agonism assay; format: cell-based; parameters: host or cells: CHO-K1
Protocol: Serotonin 5-HT2A In Vitro Cellular IPOne Agonism Assay. The 5-HT2A IPOne HTRF assay was performed at Epics Therapeutics S.A. (Belgium, FAST-0505I) using conventional methods. Briefly, CHO-K1 cells expressing human recombinant 5-HT2A receptor grown to mid-log phase in culture media without antibiotics were detached with PBS-EDTA, centrifuged, and resuspended in medium without antibiotics buffer. 20,000 cells are distributed in a 96 well plate and incubated overnight at 37° C. with 5% CO2.
For agonist testing, the medium is removed and 20 μl of assay buffer plus 20 μl of test compound or reference agonist are added in each well. The plate is incubated for 60 min. at 37° C. with 5% CO2.
After addition of the lysis buffer containing IP1-d2 and anti-IP1 cryptate detection reagents, plates are incubated 1-hour at room temperature, and fluorescence ratios are measured according to the manufacturer specification, with the HTRF kit.
(§1) The compounds provided herein were tested in the Serotonin 5-HT2A and 5-HT2C in vitro radioligand binding and cellular IPOne agonism assays. The binding and agonism functional potencies of several compound provided herein compounds (as indicated by their IC50s or EC50s) are shown in Table 11.

5HT2A [4] = molecular target: T1, 5HT2A; test: cell-based
Protocol: Cell lines were expanded from freezer stocks according to standard procedures. Cells were seeded in a total volume of 20 μL into black-walled, clear-bottom, Poly-D-lysine coated 384-well microplates and incubated at 37° C. for the appropriate time prior to testing. Assays were performed in 1× Dye Loading Buffer consisting of 1× Dye, 1× Additive A and 2.5 mM Probenecid in HBSS/20 mM Hepes. Probenicid was prepared fresh. Cells were loaded with dye prior to testing. Media was aspirated from cells and replaced with 20 μL Dye Loading Buffer. Cells are incubated for 30-60 minutes at 37° C.
For agonist determination, cells were incubated with sample to induce response. After dye loading, cells were removed from the incubator and 10 μL HBSS/20 mM Hepes was added. […] Cells were incubated for 30 minutes at room temperature in the dark to equilibrate plate temperature. Intermediate dilution of sample stocks was performed to generate 4× sample in assay buffer. Compound agonist activity was measured on a FLIPR Tetra (MDS). Calcium mobilization is monitored for 2 minutes and 10 μL 4× sample in HBSS/20 mM Hepes was added to the cells 5 seconds into the assay.
Compound activity was analyzed using CBIS data analysis suite (ChemInnovation, CA). For agonist mode assays, percentage activity was calculated using the following formula:
% Activity=100%×(mean RFU of test sample−mean RFU of vehicle control)/(mean MAX RFU control ligand −mean RFU of vehicle control).

5HT2A [5] = molecular target: T1, 5HT2A; test: Serotonin 5-HT2A in vitro radioligand binding competition assay ([3H]-DOI); parameters: purchased Epics Therapeutics S.A. (Belgium) FAST-0505B
Protocol: Serotonin 5-HT2A In Vitro Radioligand Binding Competition Assay. The 5-HT2A radioligand binding competition assay was performed at Epics Therapeutics S.A. (Belgium, FAST-0505B) using conventional methods. Briefly, competition binding is performed in duplicate in the wells of a 96 well plate (Master Block, Greiner, 786201) containing binding buffer (optimized for each receptor), membrane extracts (amount of protein/well optimized for each receptor), radiotracer [^3H]-DOI (final concentration optimized for each receptor) and test compound. Nonspecific binding is determined by co-incubation with 200-fold excess of cold competitor. The samples are incubated in a final volume of 0.1 ml at a temperature and for a duration optimized for each receptor and then filtered over filter plates. Filters are washed six times with 0.5 ml of ice-cold washing buffer (optimized for each receptor) and 50 μl of Microscint 20 (Packard) are added in each well. The plates are incubated 15 min on an orbital shaker and then counted with a TopCount™ for 1 min/well.
as §1

Rat cortical neurons [6] = test: Neurite Outgrowth in Primary Neuronal Cultures Assay (Procedure B); format: cell-based; parameters: key: A: Statistically significant mean increase as a percent of DMSO control at 10 μM or less; B: No statistically significant mean increase as a percent of DMSO control at 10 μM or less; settings: 72 h, percent of DMSO control at 10 μM or less
Text: Neurite Outgrowth in Primary Neuronal Cultures Assay (Procedure B). Changes in the pattern of neurite outgrowth have been implicated in psychiatric and neurodegenerative disorders as well as traumatic injuries. The discovery of new compounds that can positively affect neuritogenesis are important for developing new therapeutics for neurological diseases. Measurement of neurite outgrowth of rat cortical neurons using an automated image-based assay was used to determine the neuroplastic effects of the compounds of the present invention. The neurite outgrowth assay was performed at Neurofit SAS (France) as described below.
Pregnant Wistar rats (Janvier; France) were used for the study. They were delivered 6 days before their use. Upon arrival at Neurofit animal facility, they were housed one per cage and maintained in a room with controlled temperature (21-22° C.) and a reversed light-dark cycle (12 h/12 h; lights on: 17:30-05:30; lights off: 05:30-17:30) with food and water available ad libitum.
Female Wistar rats of 17 days gestation were killed by cervical dislocation and the fetuses were removed from the uterus. Their brains were placed in ice-cold medium of Leibovitz (L15, Gibco, Fisher bioblock, France). Cortices were dissected and meninges were carefully removed. The cortical neurons were dissociated by trypsinization for 30 min at 37° C. (trypsin-EDTA, Gibco) in presence of 0.1 mg/ml DNAse I (Roche, France). The reaction was stopped by addition of Dulbecco's Modified Eagle Medium (DMEM; Gibco) with 10% of fetal bovine serum (FBS; Gibco). The suspension was triturated with a 10-ml pipette and using a needle syringe 21G and centrifuged at 350×g for 10 min at room temperature. The pellet of dissociated cells was resuspended in a medium consisting of Neurobasal (Gibco) supplemented with 2% B27 supplement (Gibco), 0.5 mM L-Glutamine (Gibco), an antibiotic-antimicotic mixture. Viable cells were counted in a Neubauer cytometer using the trypan blue exclusion test (Sigma). Cells were seeded at a density of 10000 cells per well in 96-well plate (Costar) precoated with poly-L-lysine. Test compound at different concentrations were added to the cultures. Donepezil (positive control) was tested at 250 nM.
After 72 h (3 days) of plating, cultures were fixed with paraformaldehyde in PBS (4%, Sigma) for 30 min at 4° C. Then, cells were successively permeabilized with 0.1% Triton X100 for 30 min, saturated with PBS containing 3% of BSA and were incubated 1 h with anti-beta III tubulin antibody (Sigma) at 1/10 000 in PBS containing 0.5% of BSA. Cells were washed three times with PBS containing 0.5% of BSA, and they were incubated 1 h with goat anti-mouse antibody coupled with AF488 (Invitrogen A11001) diluted at 1/1000 in PBS containing 0.5% of BSA. Finally, nuclei were staining with DAPI 1 mg/ml at 1/1000 in PBS containing 0.5% of BSA. After rinsing with PBS, the plate was filmed and neurite networks were examined and analyzed using High-Content Screening (CellInsight, Thermo Scientific). The average number of neurites per neuron and the average total length of neurites per neuron were the main parameters analyzed. Analysis of data was performed using analysis of variance (ANOVA). The Fisher's Protected Least Significant Difference test was used for multiple comparisons. A p value<0.05 was considered significant. The software used is StatView 5.0 from SAS Institut.
In some embodiments, a compound of the present invention increases the pattern of neurite outgrowth. In some embodiments, a compound of the present invention increases neurite average length compared to a control. In some embodiments, a compound of the present invention increases neurite branch points compared to a control.

[7] = CHO-K1 cells, IPOne HTRF, read-out: 5-HT2A IPOne Agonism Activity
[8] = [3H]-DOI competition, membrane extracts, read-out: 5-HT2A Radioligand Binding Activity

T1 sequence (P28223 whole entry): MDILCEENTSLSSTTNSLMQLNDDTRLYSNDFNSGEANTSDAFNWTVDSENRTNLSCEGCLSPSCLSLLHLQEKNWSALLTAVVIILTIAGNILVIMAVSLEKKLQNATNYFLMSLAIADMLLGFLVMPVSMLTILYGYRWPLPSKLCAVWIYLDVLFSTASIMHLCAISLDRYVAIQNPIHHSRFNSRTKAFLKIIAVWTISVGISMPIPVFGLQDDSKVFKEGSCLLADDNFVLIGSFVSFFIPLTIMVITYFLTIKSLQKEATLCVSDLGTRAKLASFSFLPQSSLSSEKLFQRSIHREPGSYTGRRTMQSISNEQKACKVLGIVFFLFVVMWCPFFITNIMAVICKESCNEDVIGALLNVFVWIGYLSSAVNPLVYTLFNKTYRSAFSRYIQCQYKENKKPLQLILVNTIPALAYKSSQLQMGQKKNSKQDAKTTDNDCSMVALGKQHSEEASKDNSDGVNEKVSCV

## CCN(CC)C(=O)[C@@H]1C=C2c3cccc4[nH]c(Br)c(c34)C[C@H]2N(C)C1 [BOL148]
5HT2A [1]
  activation of 5HT2A sensor assay in agonist mode: do not activate the 5HT2A sensor assay in agonist mode

## CN(C)CCc1c[nH]c2ccccc12 [DMT, N,N-dimethyltryptamine]
5HT2A [1]
  activation of 5HT2A sensor assay in agonist mode: activate the 5HT2A sensor assay in agonist mode

## COc1cc(CC(C)N)c(OC)cc1I (stereo not drawn) [DOI]
5HT2A [1]
  activation of 5HT2A sensor assay in agonist mode: activate the 5HT2A sensor assay in agonist mode

## COc1ccc2c(ccn2CCN(C)C)n1 [Example 3, 2-(5-methoxy-1H-pyrrolo[3,2-b]pyridin-1-yl)-N,N-dimethylethan-1-amine]
Rat cortical neurons [2]
  Neurite Average Length @ 10 μM: B (100%-200% vehicle)
  Neurite Branch Points: @ 10 μM: A (>200% vehicle)
5HT2A [3]; [7]
  EC50: > 10 µM
5HT2A [4]
  EC50: > 110 µM
5HT2A [5]; [8]
  IC50: 0.101 to 1 µM
Rat cortical neurons [6]
  Increase in Neurite Length: A
  Increase in Neurite Number: B

## COc1cc2ccn(CCN(C)C)c2cn1 [Example 4, 2-(5-methoxy-1H-pyrrolo[2,3-c]pyridin-1-yl)-N,N-dimethylethan-1-amine]
Rat cortical neurons [2]
  Neurite Average Length @ 10 μM: B (100%-200% vehicle)
  Neurite Branch Points: @ 10 μM: B (100%-200% vehicle)
5HT2A [3]; [7]
  EC50: > 10 µM
5HT2A [4]
  EC50: > 110 µM
5HT2A [5]; [8]
  IC50: 1 to 10 µM
Rat cortical neurons [6]
  Increase in Neurite Length: A
  Increase in Neurite Number: A

## COc1cnc2c(ccn2CCN(C)C)c1 [Example 5, 2-(5-methoxy-1H-pyrrolo[2,3-b]pyridin-1-yl)-N,N-dimethylethan-1-amine]
Rat cortical neurons [2]
  Neurite Average Length @ 10 μM: B (100%-200% vehicle)
  Neurite Branch Points: @ 10 μM: C (<100% vehicle)
5HT2A [3]; [7]
  EC50: > 10 µM
5HT2A [4]
  EC50: > 110 µM
5HT2A [5]; [8]
  IC50: 0.101 to 1 µM
Rat cortical neurons [6]
  Increase in Neurite Length: B
  Increase in Neurite Number: B

## CCN(CC)CCc1c[nH]c2cc(F)ccc12 [Example 6-F-DET]
5HT2A [1]
  activation of 5HT2A sensor assay in agonist mode: do not activate the 5HT2A sensor assay in agonist mode

## COc1cnc2c(ccn2C[C@@H](C)N(C)C)c1 [Example 36, (R)-1-(5-methoxy-1H-pyrrolo[2,3-b]pyridin-1-yl)-N,N-dimethylpropan-2-amine]
5HT2A [3]; [7]
  EC50: > 10 µM
5HT2A [5]; [8]
  IC50: > 10 µM
Rat cortical neurons [6]
  Increase in Neurite Length: B
  Increase in Neurite Number: B

## C[C@H](Cn1ccc2cnccc21)N(C)C [Example 39, (R)—N,N-dimethyl-1-(1H-pyrrolo[3,2-c]pyridin-1-yl)propan-2-amine]
5HT2A [3]; [7]
  EC50: > 10 µM
5HT2A [5]; [8]
  IC50: > 10 µM
Rat cortical neurons [6]
  Increase in Neurite Length: B
  Increase in Neurite Number: B

## COc1ccc2c(ccn2C(=O)CN(C)C)c1 [Example 45, 2-(dimethylamino)-1-(5-methoxy-1H-indol-1-yl)ethan-1-one]
5HT2A [3]; [7]
  EC50: > 10 µM
5HT2A [5]; [8]
  IC50: > 10 µM
Rat cortical neurons [6]
  Increase in Neurite Length: B
  Increase in Neurite Number: B

## COc1ccc2c(ccn2C(=O)[C@@H](C)N(C)C)c1 [Example 47, (R)-2-(dimethylamino)-1-(5-methoxy-1H-indol-1-yl)propan-1-one]
5HT2A [3]
  EC50: > 10 µM
5HT2A [5]
  IC50: > 10 µM
Rat cortical neurons [6]
  Increase in Neurite Length: B
  Increase in Neurite Number: B

## O=C(c1ccc(F)cc1)C1CCN(CCn2c(=O)[nH]c3ccccc3c2=O)CC1 [Ketanserin]
5HT2A [1]
  activation of 5HT2A sensor assay in agonist mode: do not activate the 5HT2A sensor assay in agonist mode

## CNC(C)Cc1ccc2c(c1)OCO2 [L-MDMA]
5HT2A [1]
  activation of 5HT2A sensor assay in agonist mode: do not activate the 5HT2A sensor assay in agonist mode

## CCN(CC)C(=O)[C@@H]1C=C2c3cccc4[nH]cc(c34)C[C@H]2N(C)C1 [LSD]
5HT2A [1]
  activation of 5HT2A sensor assay in agonist mode: activate the 5HT2A sensor assay in agonist mode

## CN[C@H](C)Cc1ccc2c(c1)OCO2 [R-MDMA]
5HT2A [1]
  activation of 5HT2A sensor assay in agonist mode: do not activate the 5HT2A sensor assay in agonist mode
